2 molecules from ChEMBL document CHEMBL1134816, “Synthesis of 7,8-disubstituted benzolactam-V8 and its binding to protein kinase C” (Bioorg Med Chem Lett, 2001) can be followed below.

Test [1] deals with T1, Protein kinase C epsilon type (Homo sapiens, UniProt Q02156).
T1 sequence (Q02156 whole entry): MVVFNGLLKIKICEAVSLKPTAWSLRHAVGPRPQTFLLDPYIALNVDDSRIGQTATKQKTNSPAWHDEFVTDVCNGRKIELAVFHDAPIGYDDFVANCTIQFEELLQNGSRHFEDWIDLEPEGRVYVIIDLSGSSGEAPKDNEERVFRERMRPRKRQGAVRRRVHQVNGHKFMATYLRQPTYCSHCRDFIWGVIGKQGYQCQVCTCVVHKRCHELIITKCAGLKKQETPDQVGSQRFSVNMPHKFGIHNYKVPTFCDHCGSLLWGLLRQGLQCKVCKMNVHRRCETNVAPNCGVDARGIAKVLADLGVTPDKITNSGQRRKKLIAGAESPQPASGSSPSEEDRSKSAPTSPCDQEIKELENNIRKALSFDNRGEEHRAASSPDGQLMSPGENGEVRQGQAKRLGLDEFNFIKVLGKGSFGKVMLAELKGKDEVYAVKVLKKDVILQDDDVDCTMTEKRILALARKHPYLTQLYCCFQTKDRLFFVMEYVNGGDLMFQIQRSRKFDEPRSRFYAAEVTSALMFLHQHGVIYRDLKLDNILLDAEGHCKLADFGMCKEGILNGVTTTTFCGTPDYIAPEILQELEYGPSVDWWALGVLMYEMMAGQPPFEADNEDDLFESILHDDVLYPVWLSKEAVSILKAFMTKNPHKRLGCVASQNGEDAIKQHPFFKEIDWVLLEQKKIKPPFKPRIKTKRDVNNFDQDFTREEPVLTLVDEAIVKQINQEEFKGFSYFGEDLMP
Kind of test: Binding affinity for protein kinase C epsilon.

Test [2] has as its target Protein kinase C delta type (Homo sapiens, UniProt Q05655). The test can be described thus: Binding affinity for protein kinase C delta.
Test [3] concerns the target Protein kinase C alpha type (Homo sapiens, UniProt P17252). The test can be described thus: Displacement phorbol 12,13-dibutyrate(PDBU) binding from recombinant Protein kinase C alpha.

Protein kinase C delta type, sequence (Q05655 whole entry): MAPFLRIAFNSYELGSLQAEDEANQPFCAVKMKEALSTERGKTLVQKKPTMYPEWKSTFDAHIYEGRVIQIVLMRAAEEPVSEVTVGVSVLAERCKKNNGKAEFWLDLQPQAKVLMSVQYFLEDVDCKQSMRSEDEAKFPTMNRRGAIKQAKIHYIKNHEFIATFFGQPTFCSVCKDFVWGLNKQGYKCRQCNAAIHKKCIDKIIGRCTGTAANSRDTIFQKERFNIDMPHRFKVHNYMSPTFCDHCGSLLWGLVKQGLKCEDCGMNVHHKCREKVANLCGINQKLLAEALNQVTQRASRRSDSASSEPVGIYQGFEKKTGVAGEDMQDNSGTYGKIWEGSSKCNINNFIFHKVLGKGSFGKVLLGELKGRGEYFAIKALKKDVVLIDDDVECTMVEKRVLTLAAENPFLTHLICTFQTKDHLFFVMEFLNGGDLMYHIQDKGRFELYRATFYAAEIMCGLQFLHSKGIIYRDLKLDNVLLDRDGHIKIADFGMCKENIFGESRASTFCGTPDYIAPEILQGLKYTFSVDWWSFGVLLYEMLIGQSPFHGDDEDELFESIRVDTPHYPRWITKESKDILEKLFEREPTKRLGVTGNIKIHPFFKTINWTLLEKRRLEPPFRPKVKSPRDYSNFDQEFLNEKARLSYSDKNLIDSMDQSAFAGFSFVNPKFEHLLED

Broadly, the Ki is a dissociation constant, usually derived from enzyme kinetics or from competition with a known ligand. On to `CCCCCCCCC#Cc1ccc2c(c1OC)C[C@@H](CO)NC(=O)[C@H](C(C)C)N2C`, for which the Ki in test [1] was found to be 121 nM; in test [2], 91.1 nM; in test [3], 45.6 nM.
For `COc1cccc2c1C[C@@H](CO)NC(=O)[C@H](C(C)C)N2C`, the Ki in test [3] was 7160 nM.
